# Laboratory results as given in ChEMBL document CHEMBL3751828, “Discovery of imidazo[1,2-a]-pyridine inhibitors of pan-PI3 kinases that are efficacious in a mouse xenograft model” (Bioorg Med Chem Lett, 2016).
# Experiments:
# [1] = Apparent permeability of the compound from apical to basolateral side in human Caco2 cells; format: ADME, cell-based; details: Caco-2
# [2] = Cmax in CD rat at […], po by LC-MS analysis; format: ADME, organism-based; design: dose 2.5 mg/kg, route oral; details: in vivo
# [3] = AUC (0 to last) in CD rat at […], po by LC-MS analysis; format: ADME, organism-based; design: dose 2.5 mg/kg, route oral, time 0 - last; details: in vivo
SMILES,Papp A→B [1],Cmax [2],AUC(0-t) [3]
COCCOc1nc(-c2ccc3nc(NC(C)=O)cn3c2)cnc1N,,4 µM,14 µM·h
COc1nc(-c2ccc3nc(NC(C)=O)cn3c2)cnc1N,,8.9 µM,15 µM·h
CC(=O)Nc1cn2cc(-c3cnc(N)c(OCC(F)(F)F)n3)ccc2n1,,1.5 µM,4 µM·h

# The next lines start with the values.
Papp A→B [1],Cmax [2],AUC(0-t) [3],SMILES
41 ×10⁻⁶ cm/s,3 µM,49 µM·h,CC(=O)Nc1cn2cc(-c3cnc(N)c(OC(C)C(F)(F)F)n3)ccc2n1 (racemic)
,3.6 µM,7 µM·h,CCOc1nc(-c2ccc3nc(NC(C)=O)cn3c2)cnc1N
,1.3 µM,13 µM·h,CC(=O)Nc1cn2cc(-c3cnc(N)c(OC(C)C)n3)ccc2n1
